# Data published in publication PMC6277767, “Broad and Region-Specific Impacts of the Synthetic Cannabinoid CP 55,940 in Adolescent and Adult Female Mouse Brains” (Frontiers in Molecular Neuroscience, 2018).
# System: CD1 female mouse brain lipidome
# Experiment: Brain-region lipid levels (HPLC/MS/MS lipidomics) 2 h after single i.p. 3 mg/kg CP 55,940 vs vehicle
# Type: in vivo
# Experimental: The Bloomington Institutional Animal Care and Use Committee of Indiana University reviewed and approved the animal procedures. Female mice from the CD1 strain were utilized to match our study examining THC’s effects on the brain lipidome ([Leishman et al., 2018]). Mice were given a single i.p. injection of either 3 mg/kg CP or 1:1:18 cremophor:ethanol:saline vehicle (please refer to the section “3 mg/kg CP Is Relevant for Synthetic Cannabinoid Abuse and Has Stronger Effects on the Female Mouse Brain Lipidome During Adolescence” for a justification of dose and use of female mice). Three different age groups were given injections: PND 35 and PND 50 adolescents, and adult mice (PND 113). At least eight mice in each age group received CP and at least eight received vehicle. Matching the THC study time course ([Leishman et al., 2018]), mice were sacrificed via rapid decapitation 2 h after injection. Brains were immediately removed and flash-frozen in liquid nitrogen, and then stored at -80°C until dissections were performed. Brains were dissected on an ice-cold dissection plate into the following regions: STR, HIPP, CER, THAL, CTX, HYP, MID, and STEM. These abbreviations for these brain areas will be used exclusively when discussing the results generated by these specific dissections. Each dissected area was immediately placed in liquid nitrogen and then stored at -80°C until used for lipid extraction.
# Tissue extracts were performed as previously described ([Bradshaw et al., 2006]; [Stuart et al., 2013]; [Raboune et al., 2014]; [Leishman et al., 2016a],[b], [2017], [2018]). First, samples were shock frozen in liquid nitrogen, weighed, and transferred to a centrifuge tube. The mass of the largest sample was multiplied by 50 to determine how many milliliters of HPLC-grade methanol (Fisher, Fair Lawn, NJ, United States) to add. Then, samples were spiked with 500 pmol deuterium-labeled NAGly (d8NAGly; Cayman Chemical, Ann Arbor, MI, United States). Samples were placed on ice in darkness for 2 h then individually homogenized and centrifuged at 19,000 × g for 20 min at 20°C. Supernatants were diluted with HPLC water (purified in house) to make a solution of 75% water, 25% supernatant. Lipids were partially purified on C18 solid phase extraction columns (Agilent, Palo Alto, CA, United States). A series of four elutions with 1.5 mL of 60%, 75%, 85%, and 100% methanol were collected ([Stuart et al., 2013]; [Leishman et al., 2016a],[b], [2018]).
# As previously described ([Bradshaw et al., 2006]; [Tan et al., 2006]; [Smoum et al., 2010]; [Stuart et al., 2013]; [Tortoriello et al., 2013]; [Raboune et al., 2014]; [Leishman et al., 2016a],[b], [2017], [2018]), samples were analyzed using an Applied Biosystems API 3000 triple quadrupole mass spectrometer with electrospray ionization (Foster City, CA, United States). Using an Agilent XDB-C18 reversed phase analytical column and optimized mobile phase gradients, 20 μL from each elution were chromatographed. Two Shimadzu 10ADvp pumps (Columbia, MD, United States) provided the pressure for gradient elution. Mobile phase A: 20% methanol, 80% water (v/v) and 1 mM ammonium acetate (Sigma, St. Louis, MO, United States). Mobile phase B: 100% methanol, 1 mM ammonium acetate. Every method run began with 0% mobile phase B, reached 100% mobile phase B flowing at 0.2 mL/min, and gradually returned to 0% mobile phase B.
# This screening library will be referred to as the lipidome when discussing data from this study. HPLC/MS/MS data were analyzed using Analyst software (Applied Biosystems) ([Bradshaw et al., 2006]; [Tan et al., 2006]; [Stuart et al., 2013]; [Tortoriello et al., 2013]; [Raboune et al., 2014]; [Leishman et al., 2016a],[b], [2017], [2018]). Chromatograms (Supplementary Figure 3) were generated by determining the retention time of analytes from the analytical column with a [M-1] or [M+1] parent peak and a fragmentation peak corresponding to the programmed values. […]
smiles,measurement,setting,value
"CCCCCCC(C)(C)c1ccc([C@@H]2C[C@H](O)CC[C@H]2CCCO)c(O)c1 [CP 55,940]",N-stearoyl leucine mean level,PND 35 striatum,9.98E-13 moles per gram
same,N-stearoyl methionine mean level,PND 35 striatum,1.31E-12 moles per gram
same,N-stearoyl phenylalanine mean level,PND 35 striatum,1.28E-12 moles per gram
same,N-stearoyl serine mean level,PND 35 striatum,1.89E-11 moles per gram
same,N-stearoyl tryptophan mean level,PND 35 striatum,5.77E-13 moles per gram
same,Oleic acid mean level,PND 35 striatum,1.18E-09 moles per gram
same,PGE2 mean level,PND 35 striatum,3.74E-10 moles per gram
same,PGF2α mean level,PND 35 striatum,2.8E-10 moles per gram
same,PhosphoLEA mean level,PND 35 striatum,1.91E-11 moles per gram
same,total changes in lipid levels across the eight regions,PND 50,141
same,changes in lipid levels that were decreases,"PND 50, eight regions",110
same,2-linoleoyl glycerol level vs vehicle,PND 50 CER,↓↓ (1.50-1.99 times lower than vehicle)
same,2-oleoyl glycerol level vs vehicle,PND 50 CER,↓ (1-1.49 times lower than vehicle)
same,2-palmitoyl glycerol level vs vehicle,PND 50 CER,↓ (1-1.49 times lower than vehicle)
same,6-ketoPGF1α level vs vehicle,PND 50 CER,↑ (1-1.49 times higher than vehicle)
same,Arachidonic acid level vs vehicle,PND 50 CER,↓ (1-1.49 times lower than vehicle)
same,Linoleic acid level vs vehicle,PND 50 CER,↓ (1-1.49 times lower than vehicle)
same,N-arachidonoyl GABA level vs vehicle,PND 50 CER,↓ (1-1.49 times lower than vehicle)
same,N-arachidonoyl ethanolamine level vs vehicle,PND 50 CER,↓ (1-1.49 times lower than vehicle)
same,N-arachidonoyl glycine level vs vehicle,PND 50 CER,↓ (1-1.49 times lower than vehicle)
same,N-arachidonoyl phenylalanine level vs vehicle,PND 50 CER,↓↓ (1.50-1.99 times lower than vehicle)
same,N-arachidonoyl serine level vs vehicle,PND 50 CER,↓ (1-1.49 times lower than vehicle)
same,N-arachidonoyl taurine level vs vehicle,PND 50 CER,↓ (1-1.49 times lower than vehicle)
same,N-arachidonoyl tyrosine level vs vehicle,PND 50 CER,↓ (1-1.49 times lower than vehicle)
same,N-docosahexaenoyl phenylalanine level vs vehicle,PND 50 CER,↓ (1-1.49 times lower than vehicle)
same,N-linoleoyl ethanolamine level vs vehicle,PND 50 CER,↓ (1-1.49 times lower than vehicle)
same,N-oleoyl GABA level vs vehicle,PND 50 CER,↓ (1-1.49 times lower than vehicle)
same,N-oleoyl ethanolamine level vs vehicle,PND 50 CER,↓ (1-1.49 times lower than vehicle)
same,N-oleoyl phenylalanine level vs vehicle,PND 50 CER,↑ (1-1.49 times higher than vehicle)
same,N-palmitoyl leucine level vs vehicle,PND 50 CER,↑↑ (1.50-1.99 times higher than vehicle)
same,N-palmitoyl valine level vs vehicle,PND 50 CER,↑ (1-1.49 times higher than vehicle)
same,Oleic Acid level vs vehicle,PND 50 CER,↓ (1-1.49 times lower than vehicle)
same,PGE2 level vs vehicle,PND 50 CER,↓ (1-1.49 times lower than vehicle)
same,PGF2α level vs vehicle,PND 50 CER,↓ (1-1.49 times lower than vehicle)
same,2-linoleoyl glycerol level vs vehicle,PND 50 CTX,↓ (1-1.49 times lower than vehicle)
same,2-oleoyl glycerol level vs vehicle,PND 50 CTX,↓ (1-1.49 times lower than vehicle)
same,Arachidonic acid level vs vehicle,PND 50 CTX,↓ (1-1.49 times lower than vehicle)
same,Linoleic acid level vs vehicle,PND 50 CTX,↓↓ (1.50-1.99 times lower than vehicle)
same,N- stearoyl valine level vs vehicle,PND 50 CTX,↑ (1-1.49 times higher than vehicle)
same,N-arachidonoyl GABA level vs vehicle,PND 50 CTX,↓ (1-1.49 times lower than vehicle)
same,N-arachidonoyl alanine level vs vehicle,PND 50 CTX,↓ (1-1.49 times lower than vehicle)
same,N-arachidonoyl ethanolamine level vs vehicle,PND 50 CTX,↓ (1-1.49 times lower than vehicle)
same,N-arachidonoyl phenylalanine level vs vehicle,PND 50 CTX,↓ (1-1.49 times lower than vehicle)
same,N-arachidonoyl taurine level vs vehicle,PND 50 CTX,↓ (1-1.49 times lower than vehicle)
same,N-docosahexaenoyl ethanolamine level vs vehicle,PND 50 CTX,↓ (1-1.49 times lower than vehicle)
same,N-linoleoyl ethanolamine level vs vehicle,PND 50 CTX,↓ (1-1.49 times lower than vehicle)
same,N-oleoyl ethanolamine level vs vehicle,PND 50 CTX,↓↓ (1.50-1.99 times lower than vehicle)
same,N-oleoyl serine level vs vehicle,PND 50 CTX,↑ (1-1.49 times higher than vehicle)
same,N-palmitoyl leucine level vs vehicle,PND 50 CTX,↑ (1-1.49 times higher than vehicle)
same,N-palmitoyl methionine level vs vehicle,PND 50 CTX,↑ (1-1.49 times higher than vehicle)
same,N-palmitoyl phenylalanine level vs vehicle,PND 50 CTX,↑ (1-1.49 times higher than vehicle)
same,N-palmitoyl tyrosine level vs vehicle,PND 50 CTX,↑ (1-1.49 times higher than vehicle)
same,N-palmitoyl valine level vs vehicle,PND 50 CTX,↑ (1-1.49 times higher than vehicle)
same,N-stearoyl phenylalanine level vs vehicle,PND 50 CTX,↑ (1-1.49 times higher than vehicle)
same,PGE2 level vs vehicle,PND 50 CTX,↓ (1-1.49 times lower than vehicle)
same,2-linoleoyl glycerol level vs vehicle,PND 50 HIPP,↓ (1-1.49 times lower than vehicle)
same,6-ketoPGF1α level vs vehicle,PND 50 HIPP,↑ (1-1.49 times higher than vehicle)
same,Linoleic acid level vs vehicle,PND 50 HIPP,↓ (1-1.49 times lower than vehicle)
same,N-arachidonoyl alanine level vs vehicle,PND 50 HIPP,↓ (1-1.49 times lower than vehicle)
same,N-arachidonoyl ethanolamine level vs vehicle,PND 50 HIPP,↓↓ (1.50-1.99 times lower than vehicle)
same,N-arachidonoyl glycine level vs vehicle,PND 50 HIPP,↓↓ (1.50-1.99 times lower than vehicle)
same,N-arachidonoyl serine level vs vehicle,PND 50 HIPP,↓↓ (1.50-1.99 times lower than vehicle)
same,N-arachidonoyl taurine level vs vehicle,PND 50 HIPP,↓ (1-1.49 times lower than vehicle)
same,N-arachidonoyl tyrosine level vs vehicle,PND 50 HIPP,↑ (1-1.49 times higher than vehicle)
same,N-docosahexaenoyl ethanolamine level vs vehicle,PND 50 HIPP,↓ (1-1.49 times lower than vehicle)
same,N-linoleoyl ethanolamine level vs vehicle,PND 50 HIPP,↓↓ (1.50-1.99 times lower than vehicle)
same,N-linoleoyl serine level vs vehicle,PND 50 HIPP,↑ (1-1.49 times higher than vehicle)
same,N-oleoyl leucine level vs vehicle,PND 50 HIPP,↓ (1-1.49 times lower than vehicle)
same,N-oleoyl serine level vs vehicle,PND 50 HIPP,↑ (1-1.49 times higher than vehicle)
same,PGE2 level vs vehicle,PND 50 HIPP,↑ (1-1.49 times higher than vehicle)
same,PGF2α level vs vehicle,PND 50 HIPP,↑ (1-1.49 times higher than vehicle)
same,2-arachidonoyl glycerol level vs vehicle,PND 50 HYP,↓ (1-1.49 times lower than vehicle)
same,N-arachidonoyl phenylalanine level vs vehicle,PND 50 HYP,↓ (1-1.49 times lower than vehicle)
same,N-palmitoyl leucine level vs vehicle,PND 50 HYP,↑ (1-1.49 times higher than vehicle)
same,PGF2α level vs vehicle,PND 50 HYP,↑ (1-1.49 times higher than vehicle)
same,number of lipids changed,"PND 50 HYP, 49 detected",four
same,2-linoleoyl glycerol level vs vehicle,PND 50 MID,↓ (1-1.49 times lower than vehicle)
same,2-oleoyl glycerol level vs vehicle,PND 50 MID,↓ (1-1.49 times lower than vehicle)
same,6-ketoPGF1α level vs vehicle,PND 50 MID,↓ (1-1.49 times lower than vehicle)
same,Linoleic acid level vs vehicle,PND 50 MID,↓ (1-1.49 times lower than vehicle)
same,N-arachidonoyl GABA level vs vehicle,PND 50 MID,↓ (1-1.49 times lower than vehicle)
same,N-arachidonoyl alanine level vs vehicle,PND 50 MID,↓↓ (1.50-1.99 times lower than vehicle)
same,N-arachidonoyl ethanolamine level vs vehicle,PND 50 MID,↓ (1-1.49 times lower than vehicle)
same,N-arachidonoyl glycine level vs vehicle,PND 50 MID,↓↓ (1.50-1.99 times lower than vehicle)
same,N-arachidonoyl methionine level vs vehicle,PND 50 MID,↓↓ (1.50-1.99 times lower than vehicle)
same,N-arachidonoyl phenylalanine level vs vehicle,PND 50 MID,↓ (1-1.49 times lower than vehicle)
same,N-arachidonoyl tyrosine level vs vehicle,PND 50 MID,↓ (1-1.49 times lower than vehicle)
same,N-docosahexaenoyl GABA level vs vehicle,PND 50 MID,↓ (1-1.49 times lower than vehicle)
same,N-docosahexaenoyl ethanolamine level vs vehicle,PND 50 MID,↓ (1-1.49 times lower than vehicle)
same,N-docosahexaenoyl leucine level vs vehicle,PND 50 MID,↑ (1-1.49 times higher than vehicle)
same,N-linoleoyl ethanolamine level vs vehicle,PND 50 MID,↓ (1-1.49 times lower than vehicle)
same,N-oleoyl ethanolamine level vs vehicle,PND 50 MID,↓ (1-1.49 times lower than vehicle)
same,N-oleoyl methionine level vs vehicle,PND 50 MID,↓↓ (1.50-1.99 times lower than vehicle)
same,N-palmitoyl alanine level vs vehicle,PND 50 MID,↓ (1-1.49 times lower than vehicle)
same,N-palmitoyl ethanolamine level vs vehicle,PND 50 MID,↓ (1-1.49 times lower than vehicle)
same,N-palmitoyl leucine level vs vehicle,PND 50 MID,↑ (1-1.49 times higher than vehicle)
same,N-palmitoyl serine level vs vehicle,PND 50 MID,↓ (1-1.49 times lower than vehicle)
same,N-stearoyl methionine level vs vehicle,PND 50 MID,↓ (1-1.49 times lower than vehicle)
same,N-stearoyl phenylalanine level vs vehicle,PND 50 MID,↓ (1-1.49 times lower than vehicle)
same,Oleic Acid level vs vehicle,PND 50 MID,↓ (1-1.49 times lower than vehicle)
same,PGE2 level vs vehicle,PND 50 MID,↓ (1-1.49 times lower than vehicle)
same,PGF2α level vs vehicle,PND 50 MID,↓ (1-1.49 times lower than vehicle)
